This passage reports IC50 results from US20140005164A1, “WNT PATHWAY ANTAGONISTS” (Siena Biotech S.p.A., priority 2011, published 2014).

One may read the IC50 as the point on the concentration scale where inhibition reaches its midpoint.

The first assay has as its system Wnt/β-catenin pathway. In words: Wnt reporter assay (TCF-Luciferase, Firefly) in DBTRG-05MG cells. Format: cell-based. The following applies: Homo sapiens, 24 h, read-out: IC50 value in the reporter assay. As to the method:
Three copies of a 4×TCF responsive elements were cloned into the pcDNA3.1/Zeo(+) vector (Invitrogen) after deletion of the constitutive CMV promoter and the insertion of the Firefly Luciferase from Promega (phFL-TK) to measure the activity of the Wnt/β-catenin pathway. The resulting plasmid was sequenced for quality control.
Cells were grown in 20 μg/ml Zeocin and 20 μg/ml Zeocin plus 30 μg/ml Hygromicin respectively. The cells were plated at a density of 6500 cells/well in poly-D-lysine pre-treated 96 well-plates.
36 hours after plating cells were incubated with 8-points dilutions compound (0.6% DMSO (v/v)). Each compound was tested in triplicate in single plate. Luciferase detection was done with Dual-Luciferase Reporter Assay System (Promega). 24 hours after compound addition, media was removed and 30 μl of 1× lysis buffer was added to each well for 30 minutes. To each well 45 μl of Dual-Glo Luciferase reagent (Promega) were added and after 1 second delay Luciferase was detected for 1 second using Mithras LB940 instrument. After Firefly luciferase quantification 45 μl of Dual Stop & Glo reagent (Promega) were added to each well and […] Renilla was detected using the same parameters described before.
Data were expressed as % of control for Firefly and Renilla luciferase independently; values were calculated using XLFit version 4.2, with a four parameters sigmoid function (XLFit model 205).
(In a reporter assay the amount or activity of a reporter protein is the signal.)
As for `CN(C)CCN(C)c1ccc2c(n1)n(C[C@H]1CC[C@H](C(=O)Nc3ccncc3)CC1)c(=O)n2C` [Example 5, Trans-4-{5-[(2-Dimethylamino-ethyl)-methyl-amino]-1-methyl-2-oxo-1,2-dihydro-imidazo[4,5-b]pyridin-3-ylmethyl}-cyclohexanecarboxylic acid pyridin-4-ylamide], the IC50 was in the range of 35 to 23000 nM.

Consider `COc1ccc2c(c1)n(C[C@H]1CC[C@H](C(=O)N3CCC4(CC3)OCCO4)CC1)c(=O)n2C` [Example 86], for which the IC50 was in the range of 35 to 23000 nM.

The same assay, now with this note: Homo sapiens, TCF-Luciferase (Firefly) read out, 24 hours after compound addition, range given with mixed units nM and μM, read-out: IC50 value in the reporter assay.
Consider `COc1cc2c(cc1F)n(C)c(=O)n2C[C@H]1CC[C@H](C(=O)N2C[C@@H](C)O[C@@H](C)C2)CC1` [Example 179], for which the IC50 lay within 35 to 23000 nM.

For the molecule `Cn1c(=O)n(C[C@H]2CC[C@H](C(=O)N3CCN(c4nccs4)CC3)CC2)c2c(Cl)cccc21` [Example 23], the IC50 lay within 35 to 23000 nM.

For the molecule `COc1ccc2c(c1)n(C[C@H]1CC[C@H](C(=O)N3CCN(c4nccs4)CC3)CC1)c(=O)n2C` [Example 27], the IC50 was in the range of 35 to 23000 nM.

As for `Cn1c(=O)n(C[C@H]2CC[C@H](C(=O)Nc3ccncc3)CC2)c2nc(NCc3ccco3)ccc21` [Example 127], the IC50 was in the range of 35 to 23000 nM.

For `COc1ccc2c(c1)n(C[C@H]1CC[C@H](C(=O)N3CCN(c4ccc(C)nc4)CC3)CC1)c(=O)n2C` [Example 93], the IC50 was in the range of 35 to 23000 nM.

Consider `COc1ccc2c(c1)n(C[C@H]1CC[C@H](C(=O)N3CCN(c4ncc(Br)cn4)CC3)CC1)c(=O)n2C` [Example 80], for which the IC50 lay in the range of 35 to 23000 nM.

Turning to `COc1ccc2c(c1)n(C[C@H]1CC[C@H](c3nnc(-c4ccc(C)nc4)o3)CC1)c(=O)n2C` [Example 98], the IC50 was 35 to 23000 nM.

Turning to `COc1ccc2c(c1)n(C[C@H]1CC[C@H](C(=O)N3CCC(F)(F)CC3)CC1)c(=O)n2C` [Example 35], the IC50 fell in the range of 35 to 23000 nM.

For `Cn1c(=O)n(C[C@H]2CC[C@H](C(=O)Nc3ccncc3)CC2)c2c(Cl)cccc21` [Example 28], the IC50 was in the range of 35 to 23000 nM.

Take `COc1ccc2c(c1)n(C[C@H]1CC[C@H](c3nnc(-c4cnc(C)cn4)o3)CC1)c(=O)n2C` [Example 128]: the IC50 was in the range of 35 to 23000 nM.

With `COc1ccc2c(c1)n(C[C@H]1CC[C@H](c3noc(-c4cccnc4)n3)CC1)c(=O)n2C` [Example 172], the IC50 is 35 to 23000 nM.

Turning to `COCCOc1ccc2c(n1)n(C[C@H]1CC[C@H](C(=O)N3CCN(c4cnn(C)c4)CC3)CC1)c(=O)n2C` [Example 174], the IC50 lay within 35 to 23000 nM.

As to `COc1ccc2c(c1)n(C[C@H]1CC[C@H](c3nnc(-c4csc(C)n4)o3)CC1)c(=O)n2C` [Example 99], the IC50 fell in the range of 35 to 23000 nM.

Regarding `COc1ccc2c(c1)n(C[C@H]1CC[C@H](C(=O)N3CCN(c4cncnc4)CC3)CC1)c(=O)n2C` [Example 20, 5-Methoxy-1-methyl-3-[trans-4-(4-pyrimidin-5-yl-piperazine-1-carbonyl)-cyclohexylmethyl]-1,3-dihydro-benzoimidazol-2-one], the IC50 lay within 35 to 23000 nM.

For `COc1ccc2c(c1)n(C[C@H]1CC[C@H](C(=O)N3CCN(c4ncccn4)CC3)CC1)c(=O)n2C` [Example 2, 5-Methoxy-1-methyl-3-[trans-4-(4-pyrimidin-2-yl-piperazine-1-carbonyl)-cyclohexylmethyl]-1,3-dihydro-benzoimidazol-2-one], the IC50 lay within 35 to 23000 nM.

Regarding `Cn1c(=O)n(C[C@H]2CC[C@H](C(=O)N3CCN(c4ncccn4)CC3)CC2)c2cc(C(F)(F)F)ccc21` [Example 25], the IC50 fell in the range of 35 to 23000 nM.

Consider `Cn1c(=O)n(C[C@H]2CC[C@H](C(=O)N3CCN(c4nccs4)CC3)CC2)c2cccc(Cl)c21` [Example 56], for which the IC50 is 35 to 23000 nM.

Take `COc1ccc2c(c1)n(C[C@H]1CC[C@H](C(=O)N3CCN(c4ccnc(F)c4)CC3)CC1)c(=O)n2C` [Example 79]: the IC50 fell in the range of 35 to 23000 nM.

With `COc1ccc2c(c1)n(C[C@H]1CC[C@H](C(=O)N3CCN(c4cccc(C(F)(F)F)n4)CC3)CC1)c(=O)n2C` [Example 87], the IC50 lay within 35 to 23000 nM.

Take `COCCOc1ccc2c(c1)n(C[C@H]1CC[C@H](c3nnc(-c4cccnc4)o3)CC1)c(=O)n2C` [Example 146]: the IC50 lay within 35 to 23000 nM.

Regarding `COc1ccc2c(c1)n(C[C@H]1CC[C@H](C(=O)N3CCN(c4ccc(F)nc4)CC3)CC1)c(=O)n2C` [Example 89], the IC50 lay within 35 to 23000 nM.

For `Cn1c(=O)n(C[C@H]2CC[C@H](C(=O)N3CCN(c4ncccn4)CC3)CC2)c2cc(Cl)ccc21` [Example 47], the IC50 is 35 to 23000 nM.

For the molecule `Cn1c(=O)n(C[C@H]2CC[C@H](C(=O)Nc3ccncc3)CC2)c2[nH]c(=O)ccc21` [Example 139], the IC50 lay within 35 to 23000 nM.

Consider `Cn1c(=O)n(C[C@H]2CC[C@H](C(=O)N3CCN(c4ncccn4)CC3)CC2)c2c(Cl)cccc21` [Example 21], for which the IC50 fell in the range of 35 to 23000 nM.

Turning to `COc1ccc(-c2nc([C@H]3CC[C@H](Cn4c(=O)n(C)c5ccc(OC)cc54)CC3)no2)cc1` [Example 18, 5-Methoxy-3-{trans-4-[5-(4-methoxy-phenyl)[1,2,4]oxadiazol-3-yl]-cyclohexylmethyl}-1-methyl-1,3-dihydro-benzoimidazol-2-one], the half-maximal inhibitory concentration (IC50) fell in the range of 35 to 23000 nM.

Turning to `Cn1c(=O)n(C[C@H]2CC[C@H](C(=O)Nc3ccncc3)CC2)c2cc(Br)ccc21` [Example 111], the IC50 was in the range of 35 to 23000 nM.

Turning to `Cn1c(=O)n(C[C@H]2CC[C@H](C(=O)Nc3ccncc3)CC2)c2nc(NCc3cccnc3)ccc21` [Example 126], the IC50 was 35 to 23000 nM.

For `COc1cc2c(cc1F)n(C)c(=O)n2C[C@H]1CC[C@H](C(=O)Nc2ccnnc2)CC1` [Example 169], the IC50 lay within 35 to 23000 nM.

In the case of `COCC#Cc1ccc2c(n1)n(C[C@H]1CC[C@H](C(=O)N3CCN(C(C)=O)CC3)CC1)c(=O)n2C` [Example 102], the IC50 lay within 35 to 23000 nM.

For `CC(=O)N1CCN(C(=O)[C@H]2CC[C@H](Cn3c(=O)n(C)c4ccc(Br)nc43)CC2)CC1` [Example 3, 3-[trans 4-(4-Acetyl-piperazine-1-carbonyl)cyclohexylmethyl]-5-bromo-1-methyl-1,3-dihydro-imidazo[4,5-b]pyridin-2-one], the IC50 was 35 to 23000 nM.

In the case of `COc1ccc2c(c1)n(C[C@H]1CC[C@H](C(=O)Nc3cccc(C)n3)CC1)c(=O)n2C` [Example 34], the IC50 was 35 to 23000 nM.

`COCCOc1cc2c(cc1F)n(C)c(=O)n2C[C@H]1CC[C@H](C(=O)N2CCOCC2)CC1` [Example 177]: the IC50 fell in the range of 35 to 23000 nM.

As for `COc1ccc2c(c1)n(C[C@H]1CC[C@H](c3cc(-c4ccncc4)n[nH]3)CC1)c(=O)n2C` [Example 13, 5-Methoxy-1-methyl-3-[trans-4-(5-pyridin-4-yl-2H-pyrazol-3-yl)-cyclohexylmethyl]-1,3-dihydro-benzoimidazol-2-one], the IC50 lay in the range of 35 to 23000 nM.

Take `COc1ccc2c(c1)n(C[C@H]1CC[C@H](C(=O)Nc3ccc(OC)nc3)CC1)c(=O)n2C` [Example 31]: the IC50 is 35 to 23000 nM.

`Cc1cc(NC(=O)[C@H]2CC[C@H](Cn3c(=O)n(C)c4ccc(Cl)cc43)CC2)ccn1` [Example 39]: the IC50 was in the range of 35 to 23000 nM.

Regarding `COc1ccc2c(c1)n(C[C@H]1CC[C@H](C(=O)Nc3ccn(C)n3)CC1)c(=O)n2C` [Example 133], the IC50 fell in the range of 35 to 23000 nM.

For `COc1ccc2c(c1)n(C[C@H]1CC[C@H](C(=O)N3CCN(c4ccn(C)n4)CC3)CC1)c(=O)n2C` [Example 132], the IC50 was in the range of 35 to 23000 nM.

Take `COCCOc1ccc2c(c1)n(C[C@H]1CC[C@H](C(=O)Nc3ccncn3)CC1)c(=O)n2C` [Example 122]: the IC50 is 35 to 23000 nM.

`COc1ccc2c(c1)n(C[C@H]1CC[C@H](C(=O)N3CCN(c4cnn(C)c4)CC3)CC1)c(=O)n2C` [Example 141]: the IC50 lay within 35 to 23000 nM.

With `COc1ccc2c(c1)n(C[C@H]1CC[C@H](C(=O)Nc3cncnc3)CC1)c(=O)n2C` [Example 103], the IC50 fell in the range of 35 to 23000 nM.

With `Cn1c(=O)n(C[C@H]2CC[C@H](c3nnc(-c4cccnc4)o3)CC2)c2cc(C#N)ccc21` [Example 124], the IC50 fell in the range of 35 to 23000 nM.

`COc1ccc2c(c1)n(C[C@H]1CC[C@H](C(=O)Nc3cccc4ncccc34)CC1)c(=O)n2C` [Example 188]: the IC50 was in the range of 35 to 23000 nM.

On to `COc1cc2c(cc1F)n(C)c(=O)n2C[C@H]1CC[C@H](C(=O)Nc2ccncn2)CC1` [Example 159], for which the IC50 fell in the range of 35 to 23000 nM.

Regarding `CN(C)CC#Cc1ccc2c(n1)n(C[C@H]1CC[C@H](C(=O)Nc3ccncc3)CC1)c(=O)n2C` [Example 119], the IC50 fell in the range of 35 to 23000 nM.

For `COc1ccc2c(c1)n(C[C@H]1CC[C@H](c3nnc(-c4cccnc4)o3)CC1)c(=O)n2C` [Example 96], the IC50 lay in the range of 35 to 23000 nM.

Turning to `Cc1cc(NC(=O)[C@H]2CC[C@H](Cn3c(=O)n(C)c4c(Cl)cccc43)CC2)ccn1` [Example 49], the IC50 was in the range of 35 to 23000 nM.

As to `COCCOCCOc1ccc2c(c1)n(C[C@H]1CC[C@H](C(=O)Nc3ccncc3)CC1)c(=O)n2C` [Example 129], the IC50 was in the range of 35 to 23000 nM.

As for `COc1ccc2c(c1)n(C[C@H]1CC[C@H](C(=O)N3CCN(c4ccncc4)CC3)CC1)c(=O)n2C` [Example 76], the IC50 was in the range of 35 to 23000 nM.

`COc1ccc2c(c1)n(C[C@H]1CC[C@H](C(=O)N3CCN(c4cnccn4)CC3)CC1)c(=O)n2C` [Example 60]: the IC50 was in the range of 35 to 23000 nM.

`COc1ccc2c(c1)n(C[C@H]1CC[C@H](C(=O)Nc3ccnc(N4CCOCC4)c3)CC1)c(=O)n2C` [Example 50]: the concentration for half-maximal inhibition (IC50) lay within 35 to 23000 nM.
